Laboratory results taken from US7517989B2, “Piperidine derivatives useful as modulators of chemokine receptor activity” (AstraZeneca AB, priority 2002, dated 2009).

Experiments:
Human eosinophils = experiment: Human eosinophil chemotaxis; type: cell-based; conditions: compound concentration not given
Method: Human Eosinophil Chemotaxis
Human eosinophils were isolated from EDTA anticoagulated peripheral blood as previously described (Hansel et al., J. Immunol. Methods, 1991, 145, 105-110). The cells were resuspended at 10×10^6 ml^−1 in RPMI containing 200 IU/ml penicillin, 200 μg/ml streptomycin sulphate and supplemented with 10% HIFCS, at room temperature.
Eosinophils (700 μl) were pre-incubated for 15 mins at 37° C. with 7 μl of either vehicle or compound (100× required final concentration in 10% DMSO). The chemotaxis plate (ChemoTx, 3 μm pore, Neuroprobe) was loaded by adding 28 μl of a concentration of eotaxin (0.1 to 100 nM) containing a concentration of a compound according to the Examples or solvent to the lower wells of the chemotaxis plate. The filter was then placed over the wells and 25 μl of eosinophil suspension were added to the top of the filter. The plate was incubated for 1 hr at 37° C. in a humidified incubator with a 95% air/5% CO2 atmosphere to allow chemotaxis.
The medium, containing cells that had not migrated, was carefully aspirated from above the filter and discarded. The filter was washed once with phosphate buffered saline (PBS) containing 5 mM EDTA to remove any adherent cells. […] The number of eosinophils migrating was quantified according to the method of Strath et al., J. Immunol. […]

human H1 receptor = biological target: T1, human H1 receptor (Homo sapiens, UniProt P35367); experiment: Histamine H1 receptor binding, [3H]-pyrilamine displacement; conditions: 1 nM [3H]-pyrilamine; membranes of recombinant CHO-1 cells expressing human H1 receptor; read-out: H1 antagonism pKi (converted)
T1 construct: purchased Euroscreen SA, Brussels, Belgium ES-390-M; host or cells: recombinant CHO-1 cells (membranes)
T1 sequence (P35367 whole entry): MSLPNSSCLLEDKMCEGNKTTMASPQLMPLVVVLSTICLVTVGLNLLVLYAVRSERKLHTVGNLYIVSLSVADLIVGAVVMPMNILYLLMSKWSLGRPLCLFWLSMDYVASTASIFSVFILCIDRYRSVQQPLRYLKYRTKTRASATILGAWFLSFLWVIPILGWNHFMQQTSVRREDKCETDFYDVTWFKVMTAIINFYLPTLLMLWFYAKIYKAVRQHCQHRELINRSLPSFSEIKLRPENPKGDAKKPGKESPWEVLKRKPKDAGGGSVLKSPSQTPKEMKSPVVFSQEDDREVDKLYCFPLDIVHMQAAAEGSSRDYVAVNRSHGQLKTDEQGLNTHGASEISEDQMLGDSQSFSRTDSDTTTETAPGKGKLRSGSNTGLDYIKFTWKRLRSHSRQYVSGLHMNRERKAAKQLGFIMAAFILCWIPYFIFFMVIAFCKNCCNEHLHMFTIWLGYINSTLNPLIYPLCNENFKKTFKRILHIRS

Row | SMILES | Ki (human H1 receptor) [nM] | % Inhibition (3 nM Human Eotaxin) (Human eosinophils) [%]
1 | O=C(O)C(c1ccccc1)N1CCCC(CN2CCC(Oc3ccc(Cl)c(Cl)c3)CC2)C1 (single isomer, unassigned) [Example 5, 3-[[4-(3,4-dichlorophenoxy)-1-piperidinyl]methyl]-alpha-phenyl-1-piperidineacetic acid] | – | 96.9
2 | Cc1cc(Cl)ccc1OC1CCN(CC2CN(C(C(=O)O)c3ccccc3)CCO2)CC1 (single isomer, unassigned) [Example 7] | 631 | –
3 | Cc1cc(Cl)ccc1OC1CCN(CC2CN(C(C(=O)O)c3ccccc3)CCO2)CC1 (single isomer, unassigned) [Example 8] | 126 | –
4 | Cc1c(Cl)ccc(OC2CCN(CC3CN(C(C(=O)O)c4ccccc4)CCO3)CC2)c1Cl (single isomer, unassigned) [Example 9] | 316 | –
5 | Cc1c(Cl)ccc(OC2CCN(CC3CN(C(C(=O)O)c4ccccc4)CCO3)CC2)c1Cl (single isomer, unassigned) [Example 10] | 794 | –
6 | Cc1c(Cl)ccc(OC2CCN(CC3CN(C(C(=O)O)c4ccccc4)CCO3)CC2)c1Cl (single isomer, unassigned) [Example 11] | 251 | –
7 | O=C(O)[C@@H](c1ccccc1)N1CCO[C@H](CN2CCC(Oc3ccc(Cl)c(Cl)c3)CC2)C1 [Example 2, (α^4R,2R)-2-[[4-(3,4-dichlorophenoxy)-1-piperidinyl]methyl]-α-phenylmorpholineacetic acid] | – | 96.4

Now from value to compound, other results behind:

Row | Ki (human H1 receptor) [nM] | SMILES | % Inhibition (3 nM Human Eotaxin) (Human eosinophils) [%]
8 | 31.6 | Cc1c(Cl)ccc(OC2CCN(CC3CN(C(C(=O)O)c4ccccc4)CCO3)CC2)c1Cl (single isomer, unassigned) [Example 12] | –
9 | 31.6 | O=C(O)c1ccccc1CN1CCO[C@H](CN2CCC(Oc3ccc(Cl)c(Cl)c3)CC2)C1 [Example 13, 2-[[(2R)-2-[[4-(3,4-dichlorophenoxy)-1-piperidinyl]methyl]-4-morpholinyl]methyl]-benzoic acid] | –
10 | 25.1 | O=C(O)c1ccccc1N1CCO[C@H](CN2CCC(Oc3ccc(Cl)c(Cl)c3)CC2)C1 [Example 15, 2-[(2R)-2-[[4-(3,4-dichlorophenoxy)-1-piperidinyl]methyl]-4-morpholinyl]-benzoic acid] | –
